Several values for one entry are separate records, joined by “and”; a condition that tells them apart may be missing. Equal values may be shown once.
Key:
[1] = system: moderate to severe facial acne vulgaris; experiment: Treatment of acne vulgaris with oral rambazole (lesion counts); format: in vivo, human; conditions: for Table 3 (untitled, lesion count), Max. / Table 3 (untitled, lesion count), Mean / Table 3 (untitled, lesion count), Median / Table 3 (untitled, lesion count), Min. / Table 6 (untitled, summary of Table 5 lesion count), Max. / Table 6 (untitled, summary of Table 5 lesion count), Mean / Table 6 (untitled, summary of Table 5 lesion count), Median / Table 6 (untitled, summary of Table 5 lesion count), Min. / Table 4 (untitled, change of Table 3 count versus Visit 2), Max. / Table 4 (untitled, change of Table 3 count versus Visit 2), Mean / Table 4 (untitled, change of Table 3 count versus Visit 2), Median / Table 4 (untitled, change of Table 3 count versus Visit 2), Min. / Table 7 (untitled, change of Table 6 count versus Visit 2), Max. / Table 7 (untitled, change of Table 6 count versus Visit 2), Mean / Table 7 (untitled, change of Table 6 count versus Visit 2), Median / Table 7 (untitled, change of Table 6 count versus Visit 2), Min.: N 16; for Table 5 (untitled, lesion count per subject): individual subjects; for No. of Responders (≧50% reduction in inflammatory lesions): of 16 subjects
Description: Sixteen patients with moderate to severe facial acne vulgaris received a daily oral dose of 1 mg of rambazole for 12 weeks. […] The average lesion reduction was 79%. See Tables 3 through 7 for additional individual data. See FIGS. 5 and 6, respectively, for a comparison of the response to treatment of inflammatory lesions versus non-inflammatory lesions.

IL-1α = experiment: Expression of IL-1α, rambazole compared to retinoic acid (FIG. 2); format: in vivo, human
From the text: Also unexpectedly, rambazole-treated lesions (such as, for example, psoriatic lesions) continue to improve and show reduced inflammatory patterns for at least 3 months after discontinuation of treatment. Further, in contrast with retinoids such as isotretinoin, rambazole-treated inflammatory lesions responded rapidly within the first 4 weeks of treatment. This finding supports an antiinflammatory action for rambazole in addition to the typical effects on proliferation and differentiation.

CCC(CC)C(c1ccc(Nc2nc3ccccc3s2)cc1)n1cncn1 (centres unmarked) [rambazole]
serious adverse effects ([1]; 1 mg oral daily for 12 weeks): No serious adverse effects were reported
Table 3 (untitled, lesion count), Max. ([1]; Visit No. 2): 170
Table 3 (untitled, lesion count), Mean ([1]; Visit No. 2): 56.2
Table 3 (untitled, lesion count), Median ([1]; Visit No. 2): 48.0
Table 3 (untitled, lesion count), Min. ([1]; Visit No. 2): 15
Table 6 (untitled, summary of Table 5 lesion count), Max. ([1]; Visit No. 2): 199
Table 6 (untitled, summary of Table 5 lesion count), Mean ([1]; Visit No. 2): 81.3
Table 6 (untitled, summary of Table 5 lesion count), Median ([1]; Visit No. 2): 87.0
Table 6 (untitled, summary of Table 5 lesion count), Min. ([1]; Visit No. 2): 22
Table 5 (untitled, lesion count per subject) ([1]; Visit No. 2): 22 and 46 and 63 and 25 and 23 and 93 (2×) and 72 and 49 and 89 and 110 and 199 and 121 and 95 and 115 and 85
Table 3 (untitled, lesion count), Max. ([1]; Visit No. 4): 77
Table 3 (untitled, lesion count), Mean ([1]; Visit No. 4): 34.4
Table 3 (untitled, lesion count), Median ([1]; Visit No. 4): 34.5
Table 3 (untitled, lesion count), Min. ([1]; Visit No. 4): 3
Table 4 (untitled, change of Table 3 count versus Visit 2), Max. ([1]; Visit No. 4): 15
Table 4 (untitled, change of Table 3 count versus Visit 2), Mean ([1]; Visit No. 4): −21.8
Table 4 (untitled, change of Table 3 count versus Visit 2), Median ([1]; Visit No. 4): −10.0
Table 4 (untitled, change of Table 3 count versus Visit 2), Min. ([1]; Visit No. 4): −159
Table 6 (untitled, summary of Table 5 lesion count), Max. ([1]; Visit No. 4): 122
Table 6 (untitled, summary of Table 5 lesion count), Mean ([1]; Visit No. 4): 51.4
Table 6 (untitled, summary of Table 5 lesion count), Median ([1]; Visit No. 4): 49.5
Table 6 (untitled, summary of Table 5 lesion count), Min. ([1]; Visit No. 4): 3
Table 7 (untitled, change of Table 6 count versus Visit 2), Max. ([1]; Visit No. 4): 10
Table 7 (untitled, change of Table 6 count versus Visit 2), Mean ([1]; Visit No. 4): −29.9
Table 7 (untitled, change of Table 6 count versus Visit 2), Median ([1]; Visit No. 4): −17.5
Table 7 (untitled, change of Table 6 count versus Visit 2), Min. ([1]; Visit No. 4): −159
Table 5 (untitled, lesion count per subject) ([1]; Visit No. 4): 11 and 3 and 12 and 30 and 21 and 71 and 58 and 59 and 80 and 45 and 89 and 40 and 48 and 82 and 122 and 51
Table 3 (untitled, lesion count), Max. ([1]; Visit No. 5): 94
Table 3 (untitled, lesion count), Mean ([1]; Visit No. 5): 26.4
Table 3 (untitled, lesion count), Median ([1]; Visit No. 5): 27.0
Table 3 (untitled, lesion count), Min. ([1]; Visit No. 5): 1
Table 4 (untitled, change of Table 3 count versus Visit 2), Max. ([1]; Visit No. 5): 19
Table 4 (untitled, change of Table 3 count versus Visit 2), Mean ([1]; Visit No. 5): −29.8
Table 4 (untitled, change of Table 3 count versus Visit 2), Median ([1]; Visit No. 5): −22.0
Table 4 (untitled, change of Table 3 count versus Visit 2), Min. ([1]; Visit No. 5): −142
Table 6 (untitled, summary of Table 5 lesion count), Max. ([1]; Visit No. 5): 146
Table 6 (untitled, summary of Table 5 lesion count), Mean ([1]; Visit No. 5): 39.5
Table 6 (untitled, summary of Table 5 lesion count), Median ([1]; Visit No. 5): 40.5
Table 6 (untitled, summary of Table 5 lesion count), Min. ([1]; Visit No. 5): 1
Table 7 (untitled, change of Table 6 count versus Visit 2), Max. ([1]; Visit No. 5): 31
Table 7 (untitled, change of Table 6 count versus Visit 2), Mean ([1]; Visit No. 5): −41.8
Table 7 (untitled, change of Table 6 count versus Visit 2), Median ([1]; Visit No. 5): −45.0
Table 7 (untitled, change of Table 6 count versus Visit 2), Min. ([1]; Visit No. 5): −140
Table 5 (untitled, lesion count per subject) ([1]; Visit No. 5): 9 and 1 and 4 (2×) and 2 (2×) and 48 and 64 and 42 and 39 and 33 and 80 and 59 and 55 and 44 and 146
Table 3 (untitled, lesion count), Max. ([1]; Visit No. 6): 37
Table 3 (untitled, lesion count), Mean ([1]; Visit No. 6): 12.8
Table 3 (untitled, lesion count), Median ([1]; Visit No. 6): 13.5
Table 3 (untitled, lesion count), Min. ([1]; Visit No. 6): 0
Table 4 (untitled, change of Table 3 count versus Visit 2), Max. ([1]; Visit No. 6): −12
Table 4 (untitled, change of Table 3 count versus Visit 2), Mean ([1]; Visit No. 6): −43.4
Table 4 (untitled, change of Table 3 count versus Visit 2), Median ([1]; Visit No. 6): −34.0
Table 4 (untitled, change of Table 3 count versus Visit 2), Min. ([1]; Visit No. 6): −165
Table 6 (untitled, summary of Table 5 lesion count), Max. ([1]; Visit No. 6): 65
Table 6 (untitled, summary of Table 5 lesion count), Mean ([1]; Visit No. 6): 22.6
Table 6 (untitled, summary of Table 5 lesion count), Median ([1]; Visit No. 6): 26.0
Table 6 (untitled, summary of Table 5 lesion count), Min. ([1]; Visit No. 6): 0
Table 7 (untitled, change of Table 6 count versus Visit 2), Max. ([1]; Visit No. 6): −22
Table 7 (untitled, change of Table 6 count versus Visit 2), Mean ([1]; Visit No. 6): −58.6
Table 7 (untitled, change of Table 6 count versus Visit 2), Median ([1]; Visit No. 6): −58.5
Table 7 (untitled, change of Table 6 count versus Visit 2), Min. ([1]; Visit No. 6): −165
Table 5 (untitled, lesion count per subject) ([1]; Visit No. 6): 0 (2×) and 1 (2×) and 3 (2×) and 25 and 37 and 22 and 34 (2×) and 29 and 41 and 40 and 27 and 65
Table 3 (untitled, lesion count), Max. ([1]; Visit No. 7): 56
Table 3 (untitled, lesion count), Mean ([1]; Visit No. 7): 13.3
Table 3 (untitled, lesion count), Median ([1]; Visit No. 7): 8.0
Table 3 (untitled, lesion count), Min. ([1]; Visit No. 7): 0
Table 4 (untitled, change of Table 3 count versus Visit 2), Max. ([1]; Visit No. 7): −14
Table 4 (untitled, change of Table 3 count versus Visit 2), Mean ([1]; Visit No. 7): −42.9
Table 4 (untitled, change of Table 3 count versus Visit 2), Median ([1]; Visit No. 7): −35.0
Table 4 (untitled, change of Table 3 count versus Visit 2), Min. ([1]; Visit No. 7): −159
Table 6 (untitled, summary of Table 5 lesion count), Max. ([1]; Visit No. 7): 71
Table 6 (untitled, summary of Table 5 lesion count), Mean ([1]; Visit No. 7): 21.3
Table 6 (untitled, summary of Table 5 lesion count), Median ([1]; Visit No. 7): 13.5
Table 6 (untitled, summary of Table 5 lesion count), Min. ([1]; Visit No. 7): 0
Table 7 (untitled, change of Table 6 count versus Visit 2), Max. ([1]; Visit No. 7): −22
Table 7 (untitled, change of Table 6 count versus Visit 2), Mean ([1]; Visit No. 7): −59.9
Table 7 (untitled, change of Table 6 count versus Visit 2), Median ([1]; Visit No. 7): −52.5
Table 7 (untitled, change of Table 6 count versus Visit 2), Min. ([1]; Visit No. 7): −178
Table 5 (untitled, lesion count per subject) ([1]; Visit No. 7): 0 (2×) and 4 and 2 and 1 and 5 and 38 and 25 and 39 and 6 and 35 and 21 and 71 and 31 and 60 and 3
Percent Responders (≧50% reduction in inflammatory lesions) ([1]; Week 4, 1 mg oral daily): 31%
No. of Responders (≧50% reduction in inflammatory lesions) ([1]; Week 4): 5
Percent Responders (≧50% reduction in inflammatory lesions) ([1]; Week 8, 1 mg oral daily): 56%
No. of Responders (≧50% reduction in inflammatory lesions) ([1]; Week 8): 9
Percent Responders (≧50% reduction in inflammatory lesions) ([1]; Week 12, 1 mg oral daily): 100%
No. of Responders (≧50% reduction in inflammatory lesions) ([1]; Week 12): 16
Percent Responders (≧50% reduction in inflammatory lesions) ([1]; Week 16 (follow-up)): 88%
No. of Responders (≧50% reduction in inflammatory lesions) ([1]; Week 16 (follow-up)): 14
average lesion reduction ([1]; after 12 weeks, 1 mg oral daily): 79%
time within which inflammatory lesions responded ([1]; rambazole-treated inflammatory lesions, in contrast with retinoids such as isotretinoin): ≤ 4 weeks
expression of IL-1 (IL-1α): decrease the expression of IL-1
